Experimental data from patent US4110460A, “2,3-Dihydro-imidazo[2,1-b]-thiazole derivatives and applications thereof” (Metabio, priority 1976, dated 1978).

What was measured:
[1] = system: carrageenin-induced edema of the rear limb of rats; experiment: carrageenin-induced edema of the rear limb of rats (anti-inflammatory activity); assay type: in vivo, rat; parameters: Anti-inflammatory activity (carrageenin-induced edema): key to the marks not given beside the values; details: for Anti-inflammatory activity (carrageenin-induced edema): oral, rats, after 1.5 hour, rated + to ++++; for ED30 / ED40: carrageenin-induced edema in rat; for ED30: read-out: AD30; for ED40: read-out: AD40
Description: The anti-inflammatory action of the various compounds is rated, according to its intensity, with 1 + to 4 +'s in the following Table.
1. Carrageenin-induced edema in rat

[2] = system: writhing induced by intraperitoneal acetic acid in mice; experiment: acetic acid writhing test in mice (analgesic activity); assay type: in vivo, mouse; parameters: key to Analgesic activity (writhing test): rated, according to its intensity, with from 1 + to 4 +'s, with from 1 + to 4 +'s; ++++: rated, according to its intensity, with from 1 + to 4 +'s; details: for Analgesic activity (writhing test): oral, mice, 0.5 hour prior to i.p. acetic acid, 15 minutes recording, rated + to ++++
Description: The analgesic activity was determined according to the conventional testing methods for said activity: the writhing test. Mice are given a single intraperitoneal injection of 0.2 ml 6°/129 acetic acid.
The test compound is administered orally 0.5 hour prior to the acetic acid injection. The number of characteristic writhing movements inducted by pain is recorded during the 15 minutes which follow the acetic acid injection.
The analgesic action of the various derivatives is rated, according to its intensity, with from 1 + to 4 +'s in the following table.

[3] = system: male mice; experiment: acute oral toxicity in male mice; assay type: in vivo
Description: (§1) Acute toxicity was determined orally in male mice.

[4] = system: cotton-induced granuloma in rat; experiment: cotton-induced granuloma in rat; assay type: in vivo; details: male rats, oral during 7 days
Description: The test is conducted according to the technique of […]. Am. Chem. Soc., 80, 3161, 1958) The male rats are distributed in randomized groups, slightly anesthetized and depilated in the dorsal area. An incision of about 1 cm is effected along the spine, and 2 pellets of carded cotton weighing each 20 mg are placed under the skin on both sides of the neck. The treatments are administered orally during 7 days, as suspensions in BT medium. The reference group is administered BT medium alone, under the same experimental conditions. 24 hours after the last ingestion, the pellets are excised and weighed.

[5] = system: ultra-violet induced erythema in guinea-pigs; experiment: ultra-violet induced erythema in guinea-pigs; assay type: in vivo, guinea-pig; details: intragastric
Description: Erythema is induced in depilated guinea-pigs placed at a distance of 25 cm from a 300 watt mercury vapor lamp.
The back of the guinea-pigs is covered with a coat of flexible rubber in which 3 circular perforations 8 mm in diameter are effected. Blind evaluation of the erythema is carried out, 2 hrs and 5 hrs after irradiation.
The treatment is administered by the intragastric route, under a volume of 5 ml/kg.

[6] = system: Freund-adjuvant induced arthritis in rats; experiment: Freund-adjuvant induced arthritis in rats; assay type: in vivo; details: Rattus norvegicus, limb volume, X-ray examination, weight curve, lowest active dosage, read-out: inhibiting activity on the development of adjuvant-induced polyarthritis, apparent from a dosage of
Description: Injection of Mycobacterium butyricum is carried out at the level of the hind limb of rats, and produces as early as the 10th day an arthritis which develops rapidly.
The inhibiting activity of the compound of Example 1 on the development of adjuvant-induced polyarthritis in rats is apparent from a dosage of 5 mg/kg.

[7] = system: hyperthermia induced in rats by subcutaneous injection of barm; experiment: antipyretic activity, barm (yeast)-induced hyperthermia in rats; assay type: in vivo, rat; details: po, intragastric, 17 hours after yeast injection, lowest active dosage, read-out: active from a dosage of (antipyretic activity)
Description: Hyperthermia is induced in rats by subcutaneous injection of barm, at a dosage of 4 g/kg.
The treatments are administered by the intragastric route, 17 hours after yeast injection.
The change in rectal temperature of the rats is compared, as a function of time, in the absolute reference animals, the "barm" reference animals and the treated animals.

[8] = system: rats; experiment: chronic toxicity tests in rats; assay type: in vivo, rat; details: 40 mg/kg/day
[9] = system: fasting rats; experiment: ulcerogenic activity in fasting rats; assay type: in vivo, rat
[10] = acute oral toxicity in male mice; assay type: in vivo; details: mouse, in vivo, po, male mice; read-out: LD50 per os
Description: as §1

| Compound | Anti-inflammatory activity (carrageenin-induced edema) [1] | ED30 ([1]; po, 1.5 h) | ED40 ([1]; po, 1.5 h) | Analgesic activity (writhing test) [2] | LD50 [10] | other results |
| --- | --- | --- | --- | --- | --- | --- |
| COc1ccc(-c2nc3n(c2-c2ccc(OC)cc2)CCS3)cc1 [Example 1, 2,3-dihydro-5,6-(bis-paramethoxyphenyl)-imidazo[2,1-b]-thiazole] | ++++ | 5.22 mg/kg | 7.78 mg/kg | ++++ | – | minimal effective dose ([1]; po, 1.5 h, rat, lowest active dosage, read-out: active from a dosage of (carrageenin-induced edema)): 3.38 mg/kg; analgesic activity on visceral pain ([2]; acetic acid writhing test in mice, in words): highly marked analgesic activity on visceral pain; LD50 per os ([3]; mouse, in vivo, po): > 4,200 mg/kg; activity relative to phenylbutazone (granuloma) [4]: twice as active as phenylbutazone; inhibition of the development of a granuloma [4]: inhibits the development of a granuloma; protective activity, dependence on dosage (erythema) [5]: proportional to the dosage administered; protective activity still maintained ... hours after administration ([5]; duration): ≥ 6 h; protective activity highly marked as early as the first ... hours ([5]; onset): ≤ 3 h; minimal effective dose [6]: 5 mg/kg; minimal effective dose [7]: 3.38 mg/kg; major side-effects (chronic toxicity) [8]: failed to provide evidence of any major side-effects; ulcerogenic activity [9]: low ulcerogenic activity found in fasting rats is equivalent to that of the reference materials |
| COc1ccc(-c2nc3n(c2-c2ccc(OC)cc2)CC(C)S3)cc1 (centres unmarked) [Example 3, 2-methyl-2,3-dihydro-5,6-(bis-paramethoxyphenyl)-imidazo[2,1-b]-thiazole] | +++ | – | – | +++ | > 2000 mg/kg | – |
| COc1ccc(-c2nc3n(c2-c2ccc(OC)cc2)C(C)CS3)cc1 (centres unmarked) [Example 4, 3-methyl-2,3-dihydro-5,6-(bis-paramethoxyphenyl)-imidazo[2,1-b]-thiazole] | – | – | – | +++ | > 2000 mg/kg | – |
| COc1ccc(-c2nc3n(c2-c2ccc(OC)cc2)C(C)C(C)S3)cc1 (centres unmarked) [Example 7, 2,3-dimethyl-2,3-dihydro-5,6-bis(p-methoxyphenyl)-imidazo[2,1-b]-thiazole] | +++ | – | – | ++++ | – | – |
| COc1ccc(-c2nc3n(c2-c2ccc(OC)cc2)CCS3)cc1 [Example 22] | – | – | – | – | – | LD50 per os ([3]; oral, male mice): > 2,000 mg/kg |
| CCCCC1C(=O)N(c2ccccc2)N(c2ccccc2)C1=O [Phenylbutazone, reference compound] | – | 16.1 mg/kg | 27.4 mg/kg | – | – | – |
